≈ marks a conversion by molar mass, not a printed value.
What was measured:
Assay type in all cases: cell-based
MRSA FRA 95035 = assay: MIC agar dilution, MRSA strain 37; details: Staphylococcus aureus
Protocol: (§1) Molar equivalent concentrations were used to allow comparison between compounds of differing molecular mass. Due to weighing difficulties, any compound in solid form was melted in a water bath prior to dilution. To make ten-times strength concentrations, which takes into account agar dilution, 0.0352 mmol of each compound was weighed into plastic universal bottles and 4 mL of sterile distilled water (SDW) was added. To produce a homogenous emulsion the universals were vortexed; once achieved the emulsions were serial diluted by adding 2 mL to 2 mL of SDW.
(§2) For every 100 mL of Isosensitest agar (IST) (CM0471; Oxoid, Basingstoke, England), 3.1 g of the IST powder was added to 100 mL SDW (as per manufacturer's instructions) and sterilised for 15 minutes at 121° C. Once sterilised, the molten agar was cooled to 50° C. in a water-bath. Subsequently 4.8 g of CCEY powder (BC2160; Bioconnections, Wetherby, England), also known as Brazier's medium, was added to 100 mL SDW for every 100 mL of agar needed. This was then sterilised for 15 minutes at 121° C. Once sterilised the molten agar was cooled to 50° C. in a water-bath and 4 mL of egg-yolk emulsion (S2073; TCS Biosciences Ltd, Buckingham, United Kingdom) and 1 mL of lysed defibrinated horse blood (HB035; TCS Biosciences Ltd, Buckingham, United Kingdom) were also added for every 100 mL needed. Horse blood lysis is achieved by dilution to half concentration with SDW; when fully lysed the mixture will turn dark red in colour.
(§3) 18 mL agar was added to each universal and then poured into sterile Petri dishes. This step creates a 1/10 dilution resulting in agar plates of the required strength. Control plates for each set of strains were created by adding 18 mL of agar to 2 mL of SDW.
(§4) Suspensions of each bacterial species were prepared with a density equal to that of a 0.5 McFarland standard using a densitometer. All suspensions were made using sterile distilled water and fresh 18-20 hour cultures. As a 0.5 McFarland standard contains 1.5×10^8 CFU/mL and the multipoint inoculators applies 1 μL spots of liquid, each bacterial suspension was diluted 1/15 (20 μL suspension to 280 μL sterile distilled water).
(§5) Bacterial suspensions were prepared from fresh 18-24 hour cultures as previously described. 1 μL of each strain was inoculated onto all 100 agar plates containing a different chemical concentration and the 2 control plates. This was done using a multipoint inoculator which inoculates 20 strains per plate. All plates were incubated for 22 hours at 37° C. in aerobic conditions.
(§6) Each plate was examined for bacterial growth after 22 and 48 hours, with each being incubated in between examinations. A positive result was recorded as growth of ≧10 colonies. A negative result was recorded as growth of <10 colonies as this is equivalent to 99.9% inhibition. The lowest concentration of chemical that inhibited growth was recorded as the MIC. The results are recorded in Table IV below, where the numbers are quoted in mmol/L.
(§7) Given the positive performance of the ethoxylates of lauryl alcohol in reducing the MIC for a number of the micro-organisms tested, further MIC testing of Laureth-1 [C12E1] through to Laureth-8 [C12E8] was conducted on each of the following: • 10 strains of vancomycin-resistant enterococci (VRE)—listed in Table V below; and • 20 strains of methicillin-resistant Staphylococcus aureus (MRSA)—listed in Table VI.
(§8) The alkanol, alkanol derivatives, agar plates, and inocula were all prepared in the same way as described above.
(§9) The plates were examined in the same manner as described above and the results are recorded in Table VII below, where the numbers are quoted in mmol/L.

MRSA EMRSA 15 21698/98 = assay: MIC agar dilution, MRSA strain 41; details: Staphylococcus aureus
Protocol: as §1, §2, §3, §4, §5, §6, §7, §8, §9

[1] = system: vancomycin-resistant enterococci (VRE); assay: MIC agar dilution, summary over 10 VRE strains; details: Enterococcus; most, if not all, of the VRE samples
Protocol: as §7, §8, §9

MRSA NCTC 11939 = assay: MIC agar dilution, MRSA strain 50; details: Staphylococcus aureus, MRSA strain 50 NCTC 11939
Protocol: as §1, §2, §3, §4, §5, §6, §7, §8, §9

[2] = system: Enterococcus faecalis (VRE) MB 1969; assay: MIC agar dilution, VRE strain 27
Protocol: as §1, §2, §3, §4, §5, §6, §7, §8, §9

MRSA FRA 920 = assay: MIC agar dilution, MRSA strain 38; details: Staphylococcus aureus
Protocol: as §1, §2, §3, §4, §5, §6, §7, §8, §9

[3] = system: methicillin-resistant Staphylococcus aureus (MRSA); assay: MIC agar dilution, summary over 20 MRSA strains; details: MRSA bacterial samples, 22 and 48 hour
Protocol: as §7, §8, §9

MRSA EMRSA 15 21268/98 = assay: MIC agar dilution, MRSA strain 40; details: Staphylococcus aureus
Protocol: as §1, §2, §3, §4, §5, §6, §7, §8, §9

Staphylococcus aureus = assay: Additional antibacterial data, MIC (Table XII), Gram positive control; details: Staphylococcus aureus 470273M (control); inoculum 10000 cfu/spot; 24 hrs at 37° C.
Protocol: (§10) Using the protocols outlined in the example above, the inventors further investigated the antibacterial effects of representative alkoxylated alkanol compounds. The inoculum was 10000 cfu/spot; inclubation was for 24 hrs at 37° C.

[4] = system: Staphylococcus aureus(MRSA); assay: as above; details: Staphylococcus aureus(MRSA) 380022E (control); inoculum 10000 cfu/spot; 24 hrs at 37° C.
Protocol: as §10

MRSA FIN 54511 (E6) = assay: MIC agar dilution, MRSA strain 32; details: Staphylococcus aureus
Protocol: as §1, §2, §3, §4, §5, §6, §7, §8, §9

MRSA BEL 97597 = assay: MIC agar dilution, MRSA strain 33; details: Staphylococcus aureus
Protocol: as §1, §2, §3, §4, §5, §6, §7, §8, §9

SMILES | MIC (MRSA FRA 95035; 22 hrs) | MIC (MRSA FRA 95035; 48 hrs) | MIC (MRSA EMRSA 15 21698/98; 22 hrs) | MIC (MRSA EMRSA 15 21698/98; 48 hrs) | MIC [1] | MIC (MRSA NCTC 11939; 22 hrs) | MIC (MRSA NCTC 11939; 48 hrs) | MIC ([2]; 22 hrs) | MIC ([2]; 48 hrs) | MIC (MRSA FRA 920; 22 hrs) | MIC (MRSA FRA 920; 48 hrs) | MIC [3] | MIC (MRSA EMRSA 15 21268/98; 22 hrs) | MIC (MRSA EMRSA 15 21268/98; 48 hrs) | MIC (%) volume/volume (Staphylococcus aureus) | MIC (%) volume/volume [4] | MIC (MRSA FIN 54511 (E6); 22 hrs) | MIC (MRSA FIN 54511 (E6); 48 hrs) | MIC (MRSA BEL 97597; 22 hrs) | MIC (MRSA BEL 97597; 48 hrs)
CCCCCCCCCCCCOCCOCCOCCOCCO [L4, Tetraethylene Glycol Monododecyl Ether] | 55 µM (≈ 19.9 µg/mL) | 55 µM (≈ 19.9 µg/mL) | 55 µM (≈ 19.9 µg/mL) | 55 µM (≈ 19.9 µg/mL) | ≤ 440 µM | 55 µM (≈ 19.9 µg/mL) | 55 µM (≈ 19.9 µg/mL) | 220 µM (≈ 79.8 µg/mL) | 220 µM (≈ 79.8 µg/mL) | 55 µM (≈ 19.9 µg/mL) | 55 µM (≈ 19.9 µg/mL) | ~55 µM (≈ 19.9 µg/mL) | 55 µM (≈ 19.9 µg/mL) | 55 µM (≈ 19.9 µg/mL) | 0.03 % volume/volume | 0.03 % volume/volume | 110 µM (≈ 39.9 µg/mL) | 110 µM (≈ 39.9 µg/mL) | 55 µM (≈ 19.9 µg/mL) | 55 µM (≈ 19.9 µg/mL)
CCCCCCCCCCCCOCCOCCOCCOCCOCCO [L5, Pentaethylene Glycol Monododecyl Ether] | 110 µM (≈ 44.7 µg/mL) | 110 µM (≈ 44.7 µg/mL) | 110 µM (≈ 44.7 µg/mL) | 110 µM (≈ 44.7 µg/mL) | ≤ 440 µM | 110 µM (≈ 44.7 µg/mL) | 110 µM (≈ 44.7 µg/mL) | 220 µM (≈ 89.5 µg/mL) | 220 µM (≈ 89.5 µg/mL) | 110 µM (≈ 44.7 µg/mL) | 110 µM (≈ 44.7 µg/mL) | – | 110 µM (≈ 44.7 µg/mL) | 110 µM (≈ 44.7 µg/mL) | – | – | 110 µM (≈ 44.7 µg/mL) | 220 µM (≈ 89.5 µg/mL) | 110 µM (≈ 44.7 µg/mL) | 110 µM (≈ 44.7 µg/mL)
CCCCCCCCCCCCOCCOCCOCCOCCOCCOCCO [L6, Hexaethylene Glycol Monododecyl Ether] | 220 µM (≈ 99.1 µg/mL) | 440 µM (≈ 198 µg/mL) | 110 µM (≈ 49.6 µg/mL) | 110 µM (≈ 49.6 µg/mL) | – | 110 µM (≈ 49.6 µg/mL) | 110 µM (≈ 49.6 µg/mL) | > 880 µM | > 880 µM | 220 µM (≈ 99.1 µg/mL) | 220 µM (≈ 99.1 µg/mL) | – | 110 µM (≈ 49.6 µg/mL) | 110 µM (≈ 49.6 µg/mL) | – | – | 110 µM (≈ 49.6 µg/mL) | 110 µM (≈ 49.6 µg/mL) | 110 µM (≈ 49.6 µg/mL) | 110 µM (≈ 49.6 µg/mL)
CCCCCCCCCCCCOCCOCCOCCOCCOCCOCCOCCO [L7, Heptaethylene Glycol Monododecyl Ether] | > 440 µM | > 440 µM | 440 µM (≈ 218 µg/mL) | > 440 µM | – | 110 µM (≈ 54.4 µg/mL) | 110 µM (≈ 54.4 µg/mL) | > 880 µM | > 880 µM | 220 µM (≈ 109 µg/mL) | 440 µM (≈ 218 µg/mL) | ~440 µM (≈ 218 µg/mL) | > 440 µM | > 440 µM | – | – | 110 µM (≈ 54.4 µg/mL) | 440 µM (≈ 218 µg/mL) | 220 µM (≈ 109 µg/mL) | 220 µM (≈ 109 µg/mL)
CCCCCCCCCCCCOCCOCCOCCOCCOCCOCCOCCOCCO [L8, Octaethylene Glycol Monododecyl Ether] | > 440 µM | > 440 µM | > 440 µM | > 440 µM | – | 220 µM (≈ 119 µg/mL) | 220 µM (≈ 119 µg/mL) | > 880 µM | > 880 µM | > 440 µM | > 440 µM | ~440 µM (≈ 237 µg/mL) | > 440 µM | > 440 µM | – | – | 220 µM (≈ 119 µg/mL) | > 440 µM | 220 µM (≈ 119 µg/mL) | > 440 µM
